In US12622894B2, “Pharmaceutical compositions and intravitreal drug delivery systems for the treatment of ocular diseases” (Perfuse Therapeutics, Inc., priority 2021, dated 2026):
Blank lines part the entries; values can stand above or below the compound they belong to.

Columns and labels:
[1] = Slurry conversion of crystalline forms in isopropanol and water, XRPD analysis; format: physicochemical
Description: In an alternate method, 150 mg of Edonentan (Form 3) was added to a mixture of isopropanol and water (1 mL and 2 mL, respectively). The resulting slurry was stirred at 15° C. for 48 hours and then filtered.
In an alternate method, 200 mg of Edonentan (Form 1) was added to a mixture of isopropanol and water (1.3 mL and 2.6 mL, respectively). The resulting solution was heated to 80° C. and stirred for 24 h, then cooled and filtered.

[2] = pH 7.4 in 2 mg/mL melanin solution; cited from earlier work
[3] = In vitro melanin binding assay with synthetic melanin; details: 200 μM; melanin 1 mg/mL
Description: A concentration of 200 μM chloroquine was used as a positive control.

[4] = cited from earlier work

Compound: Cc1onc(NS(=O)(=O)c2ccccc2-c2ccc(-c3ncco3)cc2CN(C)C(=O)CC(C)(C)C)c1C [Form 4]
relative thermodynamic stability of crystalline forms ([1]; Form 1 in isopropanol and water, 80° C., 24 h): more thermodynamically stable than Form 1
relative thermodynamic stability of crystalline forms ([1]; slurry of Form 3 in isopropanol and water, 15° C., 48 hours): more thermodynamically stable than Form 3

Compound: Cc1onc(NS(=O)(=O)c2ccccc2-c2ccc(-c3ncco3)cc2CN(C)C(=O)CC(C)(C)C)c1C [Edonentan, N-[[2′-[[(4,5-dimethyl-3-isoxazolyl)amino]sulfonyl]-4-(2-oxazolyl)[1,1′-biphenyl]-2-yl]methyl]-N,3,3-trimethylbutanamide]
oral Tmax [4]: 24 min

Further lines, with some results ahead:

Solubility pH 7.0 Phosphate Buffer: 264 μg/mL
Compound: Cc1onc(NS(=O)(=O)c2ccccc2-c2ccc(-c3ncco3)cc2CN(C)C(=O)CC(C)(C)C)c1C [Form 1]

Solubility pH 7.0 Phosphate Buffer: 35 μg/mL
Compound: Cc1onc(NS(=O)(=O)c2ccccc2-c2ccc(-c3ncco3)cc2CN(C)C(=O)CC(C)(C)C)c1C [Form 2]

Solubility pH 7.0 Phosphate Buffer: 251 μg/mL
Compound: Cc1onc(NS(=O)(=O)c2ccccc2-c2ccc(-c3ncco3)cc2CN(C)C(=O)CC(C)(C)C)c1C [Form 3]

binding to melanin (% bound) [3]: 99.5 % bound
Compound: CCN(CC)CCCC(C)Nc1ccnc2cc(Cl)ccc12 (centres unmarked) [chloroquine]
bound to melanin, literature values [2]: 92-99.6 % bound
